In PMC12435690, “KYLO-0603, a novel liver-targeting, thyroid hormone receptor-β agonist for the inhibition of MASH progression” (PLOS One, 2025):

Tests used:
[1] = tested on: MASH mouse models (F2 ~ 3); experiment: SHG/TPEF microscopy of liver fibrosis and steatosis in MASH mouse models; assay type: in vivo, C57BL/6J mice; conditions: for SHG fibrosis percentage / percentage of steatosis: 8 weeks; for SHG fibrosis percentage: control 4.36%; for percentage of steatosis: control 21.66%
Method: Scanning was conducted on a Genesis® machine, a stain-free TPE/SHG microscopic imaging device manufactured in-house by HistoIndex®, Singapore. The region of interest (ROI) is systematically partitioned into uniformly sized, termed “blocks,” each measuring of 200 μm × 200 μm. These blocks were sequentially imaged individually and in sequence in raster scan mode utilizing a 20x objective lens. Each block has a resolution of 512 × 512 pixels, or 0.4 μm per pixel. Software developed by HistoIndex and Chipmap for image analysis identifies the different lobular regions, the central vein, the confluent region, and the perisinus region. Fibrosis and steatosis in these regions were subsequently measured and quantified in the SHG and TPE images.
As a fundamental component of clinical prognosis in MASH, a precise evaluation of hepatic fibrosis is very crucial. Artificial intelligence-assisted second harmonic generation/two-photon excitation fluorescence (SHG/TPEF) microscopy technique has been introduced because the existing scoring systems are insufficient for capturing the process of hepatic fibrosis regression. This offers a consistent and very precise way to evaluate the pathological characteristics of MASH, especially the serial measurement of collagen fibers and hepatic fibrosis. In this study, we employed second harmonic generation/two-photon excited fluorescence (SHG/TPEF) microscopy integrated with digital image analysis to evaluate liver tissue sections across a larger tissue area from MASH mouse models (F2–F3). This approach enabled systematic analysis of the effects of Kylo-0603 on arresting the progression of hepatic steatosis and fibrosis of liver tissue.
Through quantitative analysis of SHG/TPEF imaging datasets, we conducted a detailed assessment of the specific impacts of varying Kylo-0603 dosages (0.1 mg/kg, 0.3 mg/kg, 1 mg/kg, 3 mg/kg, and 10 mg/kg) on fibrogenesis and steatosis in F2–F3 MASH mouse models. The key findings are systematically summarized as follows: […]

[2] = 182-day long-term dosing toxicity study in Sprague-Dawley rats; assay type: in vivo
Method: To evaluate the preclinical safety profile of Kylo-0603, a novel liver-targeted thyroid hormone receptor β (TRβ) agonist with therapeutic potential, systematic toxicological assessments were conducted in both non-human primates (cynomolgus monkeys) and rodents (Sprague-Dawley rats). […] The no-observed-adverse-effect level (NOAEL) was determined to be 1.5 mg/kg/day. Collectively, these independent toxicological investigations substantiate Kylo-0603’s favorable safety, providing rigorous preclinical support for clinical advancement.

[3] = in vitro; conditions: CD-1, mouse, plasma
Method: (§1) We evaluated the metabolic stability of Kylo-0603 in the plasma of CD-1 mice, Sprague–Dawley (SD) rats, beagle dogs, cynomolgus monkeys, and humans. The plasma from the five species was mixed with Kylo-0603 (2 μM) and incubated at 37°C in a thermostatic water tank. The plasma concentrations of Kylo-0603 were monitored via LC-MS/MS at 0, 10, 30, 60, and 120 min.

[4] = in vitro; conditions: beagle, dog, plasma
Method: as §1

[5] = in vitro; conditions: cynomolgus monkey, plasma
Method: as §1

[6] = in vitro; conditions: human, plasma
Method: as §1

[7] = Metabolic stability in plasma (SD rats); conditions: SD rat plasma
Method: as §1

[8] = Metabolic stability in plasma (CD-1 mice)
Method: as §1

[9] = Metabolic stability in plasma (beagle dogs); conditions: dog
Method: as §1

[10] = tested on: HFD-induced obese mice; experiment: HFD-induced obese mice, oral once daily treatment; conditions: for fat content reduction / increase in the percentage of lean mass / reduction in Chol level / reduction in LDL-C level: vs HFD control; for Ballooning score / Fibrosis Score / Lobular inflammation score / NAFLD activity score / Steatosis score: DIO mice, HFD
Method: Experiments were performed on 112 (n = 16/group) male C57BL/6J mice (5 weeks). After 3 days of acclimatization, the animals were randomly divided according to body weight into a control group (Chow Diet) and a HFD group (HFD, 60% calories as fat, Cat# D12492, Research Diet, Jiangsu Xietong Pharmaceutical Bioengineering Co., Ltd.). The mice were fed with the corresponding diets for 16 weeks (with bedding shavings and a high-fat diet changed twice a week), during which the bedding shavings and high-fat diet (HFD) were refreshed twice weekly (see S1 Fig). Body weights were recorded on a weekly basis throughout this period. […] A separate cohort of mice, fed a standard chow diet, served as normal controls and received daily oral gavages of the vehicle. At the end of the experiment, the mice were fasted for 6 hours and then sacrificed. The animals were euthanized by CO2 inhalation and blood were collected along with liver and heart tissues. Collected blood samples were centrifuged to obtain the serum for the detection of cholesterol, triglyceride, and low-density lipoprotein cholesterol. The heart and liver tissues were weighed and photographed. The livers and hearts of the mice were rapidly removed and washed with cold saline. Half of the left lobe of liver was fixed in 4% neutral paraformaldehyde, and the remaining part of livers and hearts were snap-frozen and stored at −80°C for further analysis. The concentrations of serum lipids and liver enzymes from orbital or cardiac blood were determined by measuring triglycerides (TG), cholesterol (Chol), Low-density lipoprotein cholesterol (LDL-C), alanine transaminase (ALT), and aspartate transaminase (AST) levels using a Hitachi 7020 automated hematology laboratory and a Wako kit.
The dewaxed tissue slides were incubated in the alcohol-free hematoxylin staining solution for a period of 3–5 minutes, followed by thorough rinsing with running tap water. The slides were then subjected to differentiated and bluing for several seconds, after which they underwent sequential dehydration through a series of ethanol solutions with increasing concentrations (50%, 70%, 85%, and 95%). They were then subjected to eosin staining for a period of 5–10 minutes. The slides were then dehydrated sequentially with 95%, 100%, and 100% ethanol before being cleared with xylene. Finally, the slides were sealed with neutral gum, dried, and imaged.
The frozen sections were immersed in 60% isopropyl alcohol for 3–5 minutes, followed by immersion in Oil Red staining solution for 3–5 minutes. The samples were then washed with pure water. Following a wash with pure water, the nuclei were restained with hematoxylin, after which the sections were sealed with 50% glycerol, dried and photographed for imaging.
The dewaxed slides were rinsed in running water, stained with Sirius Red for 8–10 minutes, washed slightly in anhydrous ethanol, dehydrated, made transparent by gradient ethanol and xylene, and finally sealed with neutral gum, dried and photographed for imaging.

[11] = Metabolic stability in plasma (cynomolgus monkeys); conditions: cynomolgus monkey
Method: as §1

Q: For CC(=O)N[C@H]1[C@H](OCCCCCCNC(=O)CCOCC(COCCC(=O)NCCCCCCO[C@@H]2O[C@H](CO)[C@H](O)[C@H](O)[C@H]2NC(C)=O)(COCCC(=O)NCCCCCCO[C@@H]2O[C@H](CO)[C@H](O)[C@H](O)[C@H]2NC(C)=O)NC(=O)CCCCCNC(=O)COc2cc(C)c(Cc3ccc(O)c(C(C)C)c3)c(C)c2)O[C@H](CO)[C@H](O)[C@@H]1O [Kylo-0603], which SHG fibrosis percentage ([1]; 0.1 mg/kg) is on record?
A: The SHG fibrosis percentage was 2.92%.

Q: And the percentage of steatosis ([1]; 0.1 mg/kg)?
A: The percentage of steatosis was 5.07%.

Q: And the SHG fibrosis percentage ([1]; 0.3 mg/kg)?
A: The SHG fibrosis percentage was 2.12%.

Q: And the percentage of steatosis ([1]; 0.3 mg/kg)?
A: The percentage of steatosis was 4.39%.

Q: And the SHG fibrosis percentage ([1]; 1 mg/kg)?
A: The SHG fibrosis percentage was 2.16%.

Q: What about the percentage of steatosis ([1]; 1 mg/kg) of the same compound?
A: Its percentage of steatosis is 4.19%.

Q: And the SHG fibrosis percentage ([1]; 3 mg/kg)?
A: Its SHG fibrosis percentage is 2.03%.

Q: What about the percentage of steatosis ([1]; 3 mg/kg) of the same compound?
A: Its percentage of steatosis is 2.22%.

Q: What about the “reduction of steatosis vs control group” value ([1]; 10 mg/kg) of the same compound?
A: The value was 90%.

Q: And the SHG fibrosis percentage ([1]; 10 mg/kg)?
A: Its SHG fibrosis percentage is 1.86%.

Q: And the pathological changes ([2]; 182 days, maximum dose 1.5 mg/kg/day, 8-week recovery)?
A: Its pathological changes is “only mild Kylo-0603-related pathological changes”.

Q: What about the “perturbations of the hypothalamic-pituitary-thyroid (HPT) axis” value ([2]; Sprague-Dawley rats) of the same compound?
A: Its value is “no perturbations”.

Q: And the NOAEL at 182 day ([2]; Sprague-Dawley, rat, in vivo, 1.5 mg/kg/day, 182-day study, SD rats, read-out: no-observed-adverse-effect level (NOAEL))?
A: Its NOAEL at 182 day is 1.5 mg/kg/day.

Q: And the half-life at 2 μM [3]?
A: Its half-life at 2 μM is > 6.21 h.

Q: And the half-life at 2 μM [4]?
A: Its half-life at 2 μM is 5.93 h.

Q: And the half-life at 2 μM [5]?
A: The half-life at 2 μM was > 6.21 h.

Q: And the half-life at 2 μM [6]?
A: Its half-life at 2 μM is > 6.21 h.

Q: And the “plasma stability” value [7]?
A: The value was “stable”.

Q: What about the “plasma stability” value [8] of the same compound?
A: Its value is “stable”.

Q: What about the “plasma stability” value [9] of the same compound?
A: Its value is “unstable”.

Q: And the “body weight reduction vs HFD control group” value (from here on “body weight reduction”) ([10]; 0.1 mg/kg PO once daily, 10 weeks)?
A: Its value is 0.8%.

Q: What about the fat content reduction ([10]; 0.1 mg/kg, 8 weeks) of the same compound?
A: The fat content reduction was 8.96%.

Q: What about the “increase in the percentage of lean mass” value ([10]; 0.1 mg/kg, 8 weeks) of the same compound?
A: Its value is 5.32%.

Q: What about the “reduction in Chol level” value ([10]; 0.1 mg/kg, 10 weeks) of the same compound?
A: Its value is 30.6%.

Q: And the “reduction in LDL-C level” value ([10]; 0.1 mg/kg, 10 weeks)?
A: The value was 58.0%.

Q: What about the “body weight reduction” value ([10]; 0.3 mg/kg PO once daily, 10 weeks) of the same compound?
A: The value was 4.8%.

Q: And the fat content reduction ([10]; 0.3 mg/kg, 8 weeks)?
A: The fat content reduction was 9.16%.

Q: And the “increase in the percentage of lean mass” value ([10]; 0.3 mg/kg, 8 weeks)?
A: Its value is 10.95%.

Q: And the “reduction in Chol level” value ([10]; 0.3 mg/kg, 10 weeks)?
A: The value was 35.9%.

Q: And the “reduction in LDL-C level” value ([10]; 0.3 mg/kg, 10 weeks)?
A: Its value is 72.7%.

Q: And the “body weight reduction” value ([10]; 1 mg/kg PO once daily, 10 weeks)?
A: The value was 3.8%.

Q: And the fat content reduction ([10]; 1 mg/kg, 8 weeks)?
A: The fat content reduction was 14.07%.

Q: And the “increase in the percentage of lean mass” value ([10]; 1 mg/kg, 8 weeks)?
A: Its value is 13.52%.

Q: What about the “reduction in Chol level” value ([10]; 1 mg/kg, 10 weeks) of the same compound?
A: The value was 47.9%.

Q: What about the “reduction in LDL-C level” value ([10]; 1 mg/kg, 10 weeks) of the same compound?
A: The value was 81.8%.

Q: What about the “average reduction of triglyceride content in liver homogenates” value ([10]; 3 mg/kg) of the same compound?
A: Its value is “up to 36.4%”.

Q: What about the “body weight reduction” value ([10]; 3 mg/kg PO once daily, 10 weeks) of the same compound?
A: The value was 13.1%.

Q: And the “reduction in Chol level” value ([10]; 3 mg/kg, 2 weeks)?
A: Its value is 52.0%.

Q: And the “reduction in LDL-C level” value ([10]; 3 mg/kg, 2 weeks)?
A: Its value is 84.0%.

Q: What about the fat content reduction ([10]; 3 mg/kg, 8 weeks) of the same compound?
A: The fat content reduction was 26.15%.

Q: And the “increase in the percentage of lean mass” value ([10]; 3 mg/kg, 8 weeks)?
A: The value was 21.94%.

Q: And the “reduction in Chol level” value ([10]; 3 mg/kg, 10 weeks)?
A: Its value is 53.9%.

Q: And the “reduction in LDL-C level” value ([10]; 3 mg/kg, 10 weeks)?
A: Its value is 79.7%.

Q: And the “body weight reduction” value ([10]; 10 mg/kg PO once daily, 10 weeks)?
A: The value was 15.8%.

Q: What about the “reduction in Chol level” value ([10]; 10 mg/kg, 2 weeks) of the same compound?
A: Its value is 64.5%.

Q: And the “reduction in LDL-C level” value ([10]; 10 mg/kg, 2 weeks)?
A: The value was 85.8%.

Q: And the fat content reduction ([10]; 10 mg/kg, 8 weeks)?
A: The fat content reduction was 44.35%.

Q: What about the “increase in the percentage of lean mass” value ([10]; 10 mg/kg, 8 weeks) of the same compound?
A: Its value is 37.91%.

Q: And the “reduction in Chol level” value ([10]; 10 mg/kg, 10 weeks)?
A: Its value is 69.2%.

Q: And the “reduction in LDL-C level” value ([10]; 10 mg/kg, 10 weeks)?
A: Its value is 88.2%.

Q: What about the body length ([10]; 0.1-10 mg/kg, 8 weeks) of the same compound?
A: Its body length is “not affected”.

Q: What about the bone density ([10]; 0.1-10 mg/kg, 8 weeks) of the same compound?
A: The bone density was “not affected”.

Q: And the “cholesterol content in liver homogenates” value ([10]; 2 and 10 weeks)?
A: The value was “did not exert a notable influence”.

Q: And the Ballooning score ([10]; 0.1 mg/kg, 8 weeks)?
A: Its Ballooning score is 1.6 ± 0.5.

Q: And the “Fibrosis Score” value ([10]; 0.1 mg/kg, 8 weeks)?
A: The value was 0.6 ± 0.5.

Q: And the Lobular inflammation score ([10]; 0.1 mg/kg, 8 weeks)?
A: The Lobular inflammation score was 1.0 ± 0.0.

Q: And the NAFLD activity score ([10]; 0.1 mg/kg, 8 weeks)?
A: Its NAFLD activity score is 5.0 ± 0.9.

Q: What about the Steatosis score ([10]; 0.1 mg/kg, 8 weeks) of the same compound?
A: Its Steatosis score is 2.4 ± 1.1.

Q: And the Ballooning score ([10]; 0.3 mg/kg, 8 weeks)?
A: Its Ballooning score is 1.4 ± 0.5.

Q: What about the “Fibrosis Score” value ([10]; 0.3 mg/kg, 8 weeks) of the same compound?
A: Its value is 0.4 ± 0.5.

Q: What about the Lobular inflammation score ([10]; 0.3 mg/kg, 8 weeks) of the same compound?
A: The Lobular inflammation score was 1.3 ± 0.5.

Q: What about the NAFLD activity score ([10]; 0.3 mg/kg, 8 weeks) of the same compound?
A: Its NAFLD activity score is 4.6 ± 1.2.

Q: What about the Steatosis score ([10]; 0.3 mg/kg, 8 weeks) of the same compound?
A: Its Steatosis score is 2.0 ± 1.4.

Q: What about the Ballooning score ([10]; 1 mg/kg, 8 weeks) of the same compound?
A: Its Ballooning score is 1.8 ± 0.5.

Q: What about the “Fibrosis Score” value ([10]; 1 mg/kg, 8 weeks) of the same compound?
A: Its value is 0.4 ± 0.5.

Q: What about the Lobular inflammation score ([10]; 1 mg/kg, 8 weeks) of the same compound?
A: Its Lobular inflammation score is 1.1 ± 0.4.

Q: And the NAFLD activity score ([10]; 1 mg/kg, 8 weeks)?
A: Its NAFLD activity score is 4.4 ± 1.1.

Q: And the Steatosis score ([10]; 1 mg/kg, 8 weeks)?
A: The Steatosis score was 1.5 ± 0.8.

Q: And the Ballooning score ([10]; 3 mg/kg, 8 weeks)?
A: Its Ballooning score is 1.1 ± 1.0.

Q: And the “Fibrosis Score” value ([10]; 3 mg/kg, 8 weeks)?
A: The value was 0.4 ± 0.5.

Q: What about the Lobular inflammation score ([10]; 3 mg/kg, 8 weeks) of the same compound?
A: Its Lobular inflammation score is 1.1 ± 0.4.

Q: And the NAFLD activity score ([10]; 3 mg/kg, 8 weeks)?
A: The NAFLD activity score was 3.4 ± 2.1.

Q: What about the Steatosis score ([10]; 3 mg/kg, 8 weeks) of the same compound?
A: The Steatosis score was 1.1 ± 1.0.

Q: What about the Ballooning score ([10]; 10 mg/kg, 8 weeks) of the same compound?
A: Its Ballooning score is 1.0 ± 0.9.

Q: And the “Fibrosis Score” value ([10]; 10 mg/kg, 8 weeks)?
A: Its value is 0.3 ± 0.5.

Q: And the Lobular inflammation score ([10]; 10 mg/kg, 8 weeks)?
A: The Lobular inflammation score was 1.0 ± 0.0.

Q: What about the NAFLD activity score ([10]; 10 mg/kg, 8 weeks) of the same compound?
A: The NAFLD activity score was 3.2 ± 1.3.

Q: And the Steatosis score ([10]; 10 mg/kg, 8 weeks)?
A: Its Steatosis score is 1.2 ± 0.8.

Q: And the liver weight ([10]; all dose groups (0.1-10 mg/kg), 10 weeks)?
A: The liver weight was “significantly decreased”.

Q: And the “effect on heart weight” value ([10]; various doses (0.1-10 mg/kg), 10 weeks)?
A: The value was “not significant”.

Q: And the “plasma stability” value [11]?
A: The value was “stable”.
